The data set is described as follows: solvent given as SMILES.

Take `CC(=C(C#Cc1ccccc1)C#Cc1ccccc1)c1ccc(C(C)=C(C#Cc2ccccc2)C#Cc2ccccc2)cc1`: the emission maximum (in ClC(Cl)Cl) is 454 nm.

`CCN(CC)c1ccc2cc(-c3nc4cc(C(=O)Nc5ccc(C)cc5[N+](=O)[O-])ccc4o3)c(=O)oc2c1`: where the note is “in ClCCl”, the emission maximum is 496 nm.

Where the note is “in C1COCCO1”, `COc1ccc(/C=C/C2=CC(/C=C/c3ccc(OC)cc3)=[N+]3C2=C(c2ccc(-c4ccc5ccccc5n4)s2)c2c(/C=C/c4ccc(OC)cc4)cc(/C=C/c4ccc(OC)cc4)n2[B-]3(F)F)cc1` showed an emission maximum of 732 nm.

For the compound `CC1(C)c2ccccc2N(c2cccc(S(=O)(=O)c3cccc(N4c5ccccc5C(C)(C)c5ccccc54)c3)c2)c2ccccc21`, the emission maximum by setting is: (in C1CCOC1) 422 nm; (in CCCCC(CC)n1c2ccc(-n3c4ccccc4c4ccccc43)cc2c2cc(-n3c4ccccc4c4ccccc43)ccc21) 509.28 nm; (in Cc1ccccc1) 489 nm; (in ClC(Cl)Cl) 515 nm; (in c1cc(-n2c3ccccc3c3ccccc32)cc(-n2c3ccccc3c3ccccc32)c1) 505.12 nm.

As for `CN(C)c1ccc(/C=C/c2cc(/C=C/c3ccc(N(C)C)cc3)nc(/C=C/c3ccccc3)n2)cc1`, the emission maximum reads like this: (in C1CCOC1) 526 nm; (in CC#N) 587 nm; (in CC(C)=O) 563 nm; (in CCCCCCC) 453 nm; (in CS(C)=O) 601 nm; (in Cc1ccccc1) 483 nm. The same compound yielded an emission maximum (in ClCCl) of 537 nm.

Consider `CN(c1ccccc1)c1ccc(-c2ccc(-c3ccc(N(C)c4ccccc4)cc3)c3nc(-c4ccccc4)c(-c4ccccc4)nc23)cc1`, for which the emission maximum (in C1CCOC1) was 638 nm; the emission maximum (in CC#N) worked out at 659 nm; the emission maximum (in CCCCCC) turned out to be 598 nm; the emission maximum (in CN(C)C=O) worked out at 661 nm; the emission maximum (in Cc1ccccc1) is on record as 627 nm; the emission maximum (in ClC(Cl)Cl) is 640 nm.

Compound `Cc1ccc(-n2c(-c3ccc(N(c4ccc(-c5ccc(N(c6ccc(-c7nc8c9ccccc9c9ccccc9c8n7-c7ccc(C)cc7)cc6)c6ccc(-c7nc8c9ccccc9c9ccccc9c8n7-c7ccc(C)cc7)cc6)cc5)cc4)c4ccc(-c5nc6c7ccccc7c7ccccc7c6n5-c5ccc(C)cc5)cc4)cc3)nc3c4ccccc4c4ccccc4c32)cc1` displayed an emission maximum (in ClCCl) of 435 nm.

`O=C1c2ccccc2C(=O)C1C1C(=O)c2c3ccccc3cc3cc4ccccc4c1c23` (configuration not stated): the emission maximum (in C1CCOC1) came out at 569 nm; the emission maximum (in CC#N) amounted to 591 nm; the emission maximum (in CCCCCC) is reported as 538 nm; the emission maximum (in Cc1ccccc1) was determined as 563 nm; the emission maximum (in ClCCl) amounted to 583 nm.

For the compound `CCCCCCN1C(=O)c2cccc3c(-c4ccc(-c5cc(-c6ccc(Cl)cc6)n(-c6ccccc6)n5)s4)ccc(c23)C1=O`, the emission maximum (in ClCCl) stood at 517 nm.

Compound `CCCCCCCCN1C(=O)c2ccc3c4c(-c5ccc6c(c5)c5ccccc5n6-c5ccccc5)cc5c6c(cc(-c7ccc8c(c7)c7ccccc7n8-c7ccccc7)c(c7ccc(c2c37)C1=O)c64)C(=O)N(CCCCCCCC)C5=O` returned an emission maximum (in ClC(Cl)Cl) of 663 nm.

As for `CCOC(=O)c1c(-c2c(Cl)c3ccccc3oc2=O)nn(-c2ccc(Br)cc2)c1C(=O)OCC`, the emission maximum (in ClCCl) stood at 406 nm.

Consider `CCN(CC)c1ccc(/N=N/c2nc3ccc([N+](=O)[O-])cc3s2)cc1`, for which the emission maximum by setting is: (in CC#N) 607 nm; (in ClCCl) 603 nm.

Compound `c1ccc2c3c(ccc2c1)-c1c2ccccc2cc2cccc-3c12` registered an emission maximum (in CCCCCCC) of 603 nm.

Take `O=C(c1ccc(N2c3ccccc3Oc3ccccc32)cc1)c1ccc2sc3ccccc3c2c1`: the emission maximum reads like this: (in C1CCOC1) 594 nm; (in c1ccc2c(c1)c1ccccc1n2-c1ccc(-c2ccc(-n3c4ccccc4c4ccccc43)cc2)cc1) 524 nm.

Turning to `Nc1ccc2c(c1)C(=O)c1ccc(N)cc1C2=O`, the emission maximum is, setting by setting: (in CC#N) 594 nm; (in CC(C)O) 616 nm; (in CCO) 616 nm; (in CCOC(C)=O) 547.6 nm; (in CO) 616 nm.

As to `CCN(CC)c1ccc2c(-c3ccccc3C(=O)O)c3c([o+]c2c1)/C(=C/c1ccc(N(C)C)cc1)CCC3`, the emission maximum (in ClCCl) was 757 nm.

For the compound `Cc1ccc(N/C=C/C=[NH+]c2ccc(C)cc2)cc1`, under “in CS(C)=O”, the emission maximum was found to be 491 nm.

(Values after the Deep4Chem optical property database.)
